From patent US20090082354A1, “PYRAZOLO[5, 1-C] [1,2,4] TRIAZINES, METHODS FOR PREPARATION AND USE THEREOF” (Wyeth, priority 2007, published 2009)

Molecular target: T1, Flag/GST-tagged recombinant human B-Raf (Homo sapiens, UniProt P15056)
T1 construct: Flag; GST; made in house; host or cells: Sf9 insect cells (B-Raf); E. coli (MEK1-GST)
Assay: B-Raf kinase assay (phosphorylation of GST-MEK1, DELFIA readout)
Format: biochemical
Conditions: B-Raf 0.2 nM, non-active GST-MEK1 2.8 nM, 45 minutes at RT; compound 1 μM to 3 nM or 0.1 uM to 300 pm in half log dilutions
Description: Testing For B-Raf Kinase Inhibitors
Compounds of Formula A were tested as B-Raf Kinase inhibitors that can inhibit growth of tumor cells which contain oncogenic forms of Receptor Tyrosine Kinases or K-Ras, or B-Raf kinase.
Reagents: Flag/GST-tagged recombinant human B-Raf produced in Sf9 insect cells, human non-active Mek-1-GST (recombinant protein produced in E. coli); and a phospho-MEK1 specific poly-clonal Ab from Cell Signaling Technology (Cat. #9121).
B-Raf1 Kinase Assay Procedure: B-Raf-1 is used to phosphorylate GST-MEK1. MEK1 phosphorylation is measured by a phospho-specific antibody (from Cell Signaling Technology, Cat. #9121) that detects phosphorylation of two serine residues at positions 217 and 221 on MEK1.
The following Kinase Assay Protocol was employed in accordance with the invention:
B-Raf Assay Stock Solutions:
1. Assay Dilution Buffer (ADB): 20 mM MOPS, pH 7.2, 25 mM B-glycerol phosphate, 5 mM EGTA, 1 mM sodium orthovanadate, 1 mM dithiothreitol, 0.01% Triton X-100. 2. Magnesium/ATP Cocktail: ADB solution (minus Triton X-100) plus 200 μM cold ATP and 40 mM magnesium chloride. 3. Active Kinase: Active B-Raf: used at 0.2 nM per assay point. 4. Non-active GST-MEK1: Use at 2.8 nM final concentration). 5. TBST-Tris (50 mM, pH 7.5), NaCl (150 mM), Tween-20 (0.05%)
7. Anti pMEK Ab (Upstate) 8. Anti-rabbit Ab/Europium conjugate (Wallac)
1. Add 25 μl of ADB containing B-Raf and Mek per assay (i.e. per well of a 96 well plate) 2. Add 25 μl of 0.2 mM ATP and 40 mM magnesium chloride in Magnesuium/ATP Cocktail. 3. Incubate for 45 minutes at RT with occasional shaking. 4. Transfer this mixture to an anti-GST Ab coated 96 well plate (Nunc Immunosorb plates coated o/n with a-GST. Plate freshly washed 3× with TBS-T before use. 5. Incubate o/n at […] in cold room. 6. Wash 3× with TBST, add Anti-Phospho MEK1 (1:1000, dilution depends upon lot) 7. Incubate for 60 minutes at RT in a shaking incubator 8. Wash 3× with TBST, add Anti-rabbit Ab/Europium conjugate (Wallac) (1:500, dilution depends upon lot) 9. Incubate for 60 minutes at RT on a platform shaker. 10. Wash plate 3× with TBS-T 11. Add 100 ul of Wallac Delfia Enhancement Solution and shake for 10 minutes. 12. Read plates in Wallac Victor model Plate Reader. 13. Collect data analyze in Excel for single point and IC50 determinations. Mallon R, et al (2001) Anal. Biochem. 294:48.
IC50 determinations were performed on compounds of Formula A from single point assays with >80% inhibition. Single point assay—% inhibition at 10 mg/mL (% inhibition=1—sample treated with compound of Formula A/untreated control sample). The % inhibition was determined for each compound concentration. IC50 determinations—Typically the B-Raf assay was run at compound concentrations from 1 μM to 3 nM or 0.1 uM to 300 pm in half log dilutions. Data was analyzed in Excel and transferred to Radis.

T1 sequence (P15056 whole entry): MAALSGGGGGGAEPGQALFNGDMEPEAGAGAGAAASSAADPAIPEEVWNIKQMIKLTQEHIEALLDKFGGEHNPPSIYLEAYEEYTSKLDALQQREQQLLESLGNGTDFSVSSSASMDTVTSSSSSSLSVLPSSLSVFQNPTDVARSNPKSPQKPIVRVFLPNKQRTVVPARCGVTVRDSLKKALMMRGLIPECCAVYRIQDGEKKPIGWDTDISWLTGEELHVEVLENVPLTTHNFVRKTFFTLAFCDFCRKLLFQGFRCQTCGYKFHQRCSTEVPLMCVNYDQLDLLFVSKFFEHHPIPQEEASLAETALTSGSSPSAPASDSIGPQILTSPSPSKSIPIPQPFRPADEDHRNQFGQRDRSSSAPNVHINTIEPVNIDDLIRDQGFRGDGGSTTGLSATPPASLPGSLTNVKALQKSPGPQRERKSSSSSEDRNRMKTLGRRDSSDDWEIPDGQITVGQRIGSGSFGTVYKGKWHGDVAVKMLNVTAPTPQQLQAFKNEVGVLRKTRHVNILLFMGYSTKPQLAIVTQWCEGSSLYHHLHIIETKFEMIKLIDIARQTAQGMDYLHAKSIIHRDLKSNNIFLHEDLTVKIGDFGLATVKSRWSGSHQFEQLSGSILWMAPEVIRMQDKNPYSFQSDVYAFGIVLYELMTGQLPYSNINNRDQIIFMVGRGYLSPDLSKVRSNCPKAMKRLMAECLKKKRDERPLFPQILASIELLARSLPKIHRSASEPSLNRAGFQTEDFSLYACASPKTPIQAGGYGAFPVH

Compared with COc1cccc(-c2c(-c3ccncc3)nn3c(C)c(C(=O)N4CCN(C)CC4)nnc23)c1 [Example 3], CN1CCN(c2ccc(-c3cnnc4c(-c5cccc(O)c5)c(-c5ccncc5)nn34)cn2)CC1 [Example 7, 3-{4-[6-(4-Methyl-piperazin-1-yl)-pyridin-3-yl]-7-pyridin-4-yl-pyrazolo[5,1-c][1,2,4]triazin-8-yl}-phenol] is 500-fold lower in IC50: 1000 nM for the first, 2 nM for the second.

First: CN1CCCN(c2ccc(-c3cnnc4c(-c5ccc(Cl)c(O)c5)c(-c5ccncc5)nn34)cn2)CC1 [Example 14, 2-Chloro-5-{4-[6-(4-methyl-1,4-diazepan-1-yl)pyridin-3-yl]-7-pyridin-4-ylpyrazolo[5,1-c][1,2,4]triazin-8-yl}phenol]
Second: CN1CCCN(c2ccc(-c3cnnc4c(-c5cccc(O)c5)c(-c5ccncc5)nn34)cn2)CC1 [Example 6, 3-{4-[6-(4-Methyl-[1,4]diazepan-1-yl)-pyridin-3-yl]-7-pyridin-4-yl-pyrazolo[5,1-c][1,2,4]triazin-8yl}-phenol]
The IC50 of the first is lower: less than 0.3 nM for the first, 2 nM for the second.

Compared with Oc1cccc(-c2c(-c3ccncc3)nn3c(C4CCCCC4)cnnc23)c1 [Example 2, 3-(4-cyclohexyl-7-pyridin-4-yl-pyrazolo[5,1-c][1,2,4]triazin-8-yl)phenol], Oc1cccc(-c2c(-c3ccncc3)nn3c(-c4ccc(Br)nc4)cnnc23)c1 [Example 5, 3-[4-(6-Bromo-pyridin-3-yl)-7-pyridin-4-yl-pyrazolo[5,1-c][1,2,4]triazin-8-yl]-phenol] is 5.1-fold higher in IC50: 18 nM for the first, 91 nM for the second. The first is the more potent here.

Going from CCOC(=O)N1C2CCC1CC(c1cnnc3c(-c4ccc(Cl)c(O)c4)c(-c4ccncc4)nn13)C2 (stereo not shown) [Example 18, Ethyl 3-[8-(4-chloro-3-hydroxyphenyl)-7-pyridin-4-ylpyrazolo[5,1-c][1,2,4]triazin-4-yl]-8-azabicyclo[3.2.1]octane-8-carboxylate] to CCOC(=O)c1nnc2c(-c3ccc(Cl)c(OC)c3)c(-c3ccncc3)nn2c1C1CC1 [Example 10, Ethyl 8-(4-chloro-3-methoxyphenyl)-4-cyclopropyl-7-pyridin-4-yl pyrazolo[5,1-c][1,2,4]triazine-3-carboxylate], the IC50 rises from 0.3 nM to 329 nM (1100-fold).

First: CN1CCN(S(=O)(=O)c2cccc(-c3cnnc4c(-c5ccc(Cl)c(O)c5)c(-c5ccncc5)nn34)c2)CC1 [Example 15, 2-Chloro-5-(4-{3-[(4-methylpiperazin-1-yl)sulfonyl]phenyl}-7-pyridin-4-ylpyrazolo[5,1-c][1,2,4]triazin-8-yl)phenol]
Second: Cc1c(S(=O)(=O)c2ccccc2)nnc2c(-c3cccc(O)c3)c(-c3ccncc3)nn12 [Example 9, 3-[4-Methyl-3-(phenylsulfonyl)-7-pyridin-4-ylpyrazolo[5,1-c][1,2,4]triazin-8-yl]phenol]
The IC50 of the first is lower: less than 0.3 nM for the first, 55 nM for the second.
